Assay results from US9358250B2, “Methods of using SCD1 antagonists” (Genentech, Inc., priority 2011, dated 2016).

Assays:
HT29 = assay: Cell viability, CellTiter-Glo; format: cell-based, human; conditions: for IC50: Homo sapiens, HT-29, 72 h; for cell proliferation, oleate / palmitate supplement: HT29 cells
Method: (§1) For SCD1 small molecule inhibitor experiment, cells were treated with indicated concentration of A37062 (Abbott compound 4c) or G02447171.1 (Daichii compound 24) in DMSO or DMSO alone for 48-72 hr. Cell viability was assessed with CellTiter-Glo at 72 hr post treatment (Promega). Activation of caspase 3 and caspase 7 was measured with the Caspase-Glo 3/7 assay kit at 48 hr after treatment (Promega). Values are presented as mean+/−SD of quadruplets. Data are representative of at least three independent experiments.
(§2) To investigate the effect of SCD1 small molecule antagonists on cancer cell lines were treated with serially diluted A37062 for 72 hr, and […] cell viability was measured by CellTiter-Glo (Promega) as described above.
(§3) To investigate the effect of additional SCD1 small molecule antagonists, HT29 and HCT15 were treated with serially diluted small molecule inhibitors RG1-14 and G02447171 (G7171) for 72 hr, and cell viability was measured by CellTiter-Glo (Promega). The specificity and selectivity of the SCD1 small molecule inhibitors was also evaluated.

HCT-15 = assay: Cell viability, CellTiter-Glo; format: cell-based, human; conditions: for IC50: Homo sapiens, HCT-15, 72 h; for cell proliferation, oleate / palmitate supplement: HCT15 cells
Method: as §1, §2, §3

| SMILES | IC50 (HT29; Experiment 1 HT29, 72 hr) [nM] | IC50 (HT29; Experiment 2 HT29, 72 hr) [nM] | IC50 (HCT-15; Experiment 1 HCT15, 72 hr) [nM] | IC50 (HCT-15; Experiment 2 HCT15, 72 hr) [nM] | cell proliferation, oleate / palmitate supplement (HT29) | cell proliferation, oleate / palmitate supplement (HCT-15) |
| --- | --- | --- | --- | --- | --- | --- |
| O=c1cc(N2CCN(Cc3cc(I)ccc3O)CC2)nc[nH]1 [RG2] | 683 | 398 | 58.1 | 122 |  |  |
| O=c1cc(N2CCN(Cc3cc(Cl)cc(Br)c3O)CC2)nc[nH]1 [RG3] | 42.6 | 14.5 | 2.77 | 8.22 | suppress cell proliferation in a fatty acid desaturation-dependent manner | suppress cell proliferation in a fatty acid desaturation-dependent manner |
| O=c1cc(N2CCN(Cc3cc(F)cc(F)c3O)CC2)nc[nH]1 [RG4] | 547 | 346 | 289 | 244 |  |  |
| O=c1cc(N2CCN(Cc3cccc(Cl)c3O)CC2)nc[nH]1 [RG5] | 277 | 328 | 152 | 383 |  |  |
| O=c1cc(N2CCN(Cc3cc(Cl)ccc3O)CC2)nc[nH]1 [RG6] | 330 | 280 | 86.9 | 169 |  |  |
| O=c1cc(N2CCN(Cc3cc(Cl)ccc3[N+](=O)[O-])CC2)nc[nH]1 [RG7] | 89.7 | 272 | 177 | 495 |  |  |
| O=c1cc(N2CCN(Cc3cc(Br)cc(Br)c3O)CC2)nc[nH]1 [RG8] | 18.7 | 8.13 | 0.784 | 4.14 | suppress cell proliferation in a fatty acid desaturation-dependent manner | suppress cell proliferation in a fatty acid desaturation-dependent manner |
| Cc1cccc(CN2CCN(c3cc(=O)[nH]cn3)CC2)c1O [RG11] | 243 | 266 | 148 | 416 |  |  |
| Cc1cc(Cl)cc(CN2CCN(c3cc(=O)[nH]cn3)CC2)c1O [RG12] | 378 | 83.5 | 1 | 4.33 |  |  |
| Cc1c(Br)cccc1CN1CCN(c2cc(=O)[nH]cn2)CC1 [RG13] | 129 | 191 | 288 | 274 |  |  |
| O=c1cc(N2CCN(Cc3cc(OC(F)(F)F)ccc3O)CC2)nc[nH]1 [RG14] | 689 | 323 | 24.6 | 53 |  |  |
